# Assay: Cytotoxicity against mouse BV2 cells assessed as cell viability at 40 uM after 24 hrs by MTT assay relative to control
# Format: cell-based, BV-2
# Conditions: read-out: Activity
row,Structure (SMILES),"viability at 24 h, 40 µM [%]"
1,COc1cc(Cc2c(O)c(C)cc3c2[nH]c2ccccc23)cc2c1[nH]c1ccccc12,< 80
2,COc1cc(Cc2ccc3[nH]c4c(OC)c(O)c(C)cc4c3c2)cc2c1[nH]c1ccccc12,< 80
3,COc1cc(Cn2c3ccccc3c3cc(C)c(O)c(OC)c32)cc2c1[nH]c1ccccc12,< 80
4,COc1c(O)c(C)cc2c3ccccc3n(Cc3ccc4[nH]c5ccccc5c4c3)c12,< 80
5,COc1cc(Cn2c3ccccc3c3cc(C)c(O)cc32)cc2c1[nH]c1ccccc12,< 80
6,COc1ccc2c([nH]c3c(-c4c(O)c(C)cc5c4[nH]c4ccccc45)c(O)c(C)cc32)c1C=O,< 80
7,COc1ccc2c([nH]c3c(-c4c(O)c(C)cc5c4[nH]c4c(C=O)c(OC)ccc45)c(O)c(C)cc32)c1C=O,< 80

# Assay: Antiinflammatory activity in mouse BV2 cells assessed as inhibition of LPS-stimulated nitric oxide production at 40 uM after 24 hrs by Griess assay relative to control
# Format: functional
# Conditions: BV-2, 24 h
row,Structure (SMILES),inhibition at 40 µM [%]
1,COn1c2ccccc2c2cc(COCc3ccc4c(c3)c3ccccc3n4Cc3ccc4c(c3)c3ccccc3n4OC)ccc21,< 20

# Assay: Cytotoxicity against mouse BV2 cells assessed as effect on cell viability after 24 hrs by MTT assay
# Format: cell-based
# Conditions: bv-2, 24 h
row,Structure (SMILES),Activity
1,COn1c2ccccc2c2cc(COCc3ccc4c(c3)c3cc(Cc5ccc6c(c5)c5ccccc5n6OC)ccc3n4OC)ccc21,Non-toxic
2,COn1c2ccccc2c2cc(COCc3ccc4c(c3)c3ccccc3n4Cc3ccc4c(c3)c3ccccc3n4OC)ccc21,Non-toxic
3,COc1cc(Cc2c(C)cc3c([nH]c4ccccc43)c2OC)cc2c1[nH]c1ccccc12,Non-toxic
4,COc1cc(C)c(Cc2ccc3[nH]c4ccccc4c3c2)c2c1[nH]c1ccccc12,Non-toxic
5,COc1cc(Cn2c3ccccc3c3cc(C=O)ccc32)cc2c1[nH]c1ccccc12,Non-toxic
6,COn1c2ccccc2c2cc(COCc3ccc4[nH]c5ccccc5c4c3)ccc21,Non-toxic
7,COc1cc(Cn2c3ccccc3c3cc(CO)cc(OC)c32)cc2c1[nH]c1ccccc12,Non-toxic
8,COc1cc(Cn2c3ccccc3c3cc(C=O)cc(OC)c32)cc2c1[nH]c1ccccc12,Non-toxic
9,COn1c2ccccc2c2cc(COCc3ccc4c(c3)c3ccccc3n4OC)ccc21,Non-toxic
10,COc1cc(Cc2c(C)cc(OC)c3[nH]c4ccccc4c23)cc2c1[nH]c1ccccc12,Non-toxic

# Assay: Antiinflammatory activity in mouse BV2 cells assessed as inhibition of LPS-stimulated nitric oxide production after 24 hrs by Griess assay
# Format: functional, cell-based
# Conditions: BV-2, 24 h
row,IC50 [µM],Structure (SMILES)
1,27.2,COn1c2ccccc2c2cc(COCc3ccc4c(c3)c3cc(Cc5ccc6c(c5)c5ccccc5n6OC)ccc3n4OC)ccc21
2,11.4,COc1cc(Cc2c(C)cc3c([nH]c4ccccc43)c2OC)cc2c1[nH]c1ccccc12
3,26.7,COc1cc(C)c(Cc2ccc3[nH]c4ccccc4c3c2)c2c1[nH]c1ccccc12
4,17.9,COc1cc(Cn2c3ccccc3c3cc(C=O)ccc32)cc2c1[nH]c1ccccc12
5,21.9,COn1c2ccccc2c2cc(COCc3ccc4[nH]c5ccccc5c4c3)ccc21
6,19.3,COc1cc(Cn2c3ccccc3c3cc(CO)cc(OC)c32)cc2c1[nH]c1ccccc12
7,38.5,COc1cc(Cn2c3ccccc3c3cc(C=O)cc(OC)c32)cc2c1[nH]c1ccccc12
8,11.2,COn1c2ccccc2c2cc(COCc3ccc4c(c3)c3ccccc3n4OC)ccc21
9,18.6,COc1cc(Cc2c(C)cc(OC)c3[nH]c4ccccc4c23)cc2c1[nH]c1ccccc12

row,Structure (SMILES),IC50 [µM]
1,O=c1c(O)c(-c2ccc(O)c(O)c2)oc2cc(O)cc(O)c12 [QUERCETIN],17.4
